The values below come from ChEMBL document CHEMBL4828777, “Effect of the Chromone Core Substitution of Dirchromone on the Resultant Biological Activities” (J Nat Prod, 2021).

≈ marks a conversion by molar mass, not a printed value.

One assay concerns Staphylococcus aureus. Put plainly: Antibacterial activity against Staphylococcus aureus ATCC 25923 assessed as reduction in bacterial growth incubated for 24 hrs by microdilution method. The assay is classed as functional.
In the next assay the test system is Candida albicans. Put plainly: […] activity against Candida albicans ATCC 10231 assessed as reduction in fungal growth incubated for 24 hrs by microdilution method. Type of assay: functional.
The test system of the next assay is DLD-1. Put plainly: Cytotoxicity against human DLD-1 cells assessed as reduction in cell viability incubated for 48 hrs by Hoechst staining based assay. The assay is classed as functional. The conditions noted are these: DLD-1, 48 h.
For the next assay, the system named is A549. The assay can be described thus: Cytotoxicity against human A549 cells assessed as reduction in cell viability incubated for 48 hrs by Hoechst staining based assay. Type of assay: functional. The conditions noted are these: A549, 48 h.
Assay [1] is described as follows: Cytotoxicity against human WS1 cells assessed as reduction in cell viability incubated for 48 hrs by Hoechst staining based assay. The following applies: WS1, 48 h.

As for `C[S+]([O-])/C=C/c1cc(=O)c2cc(O)ccc2o1` (racemic), the values for the MIC90 in the assay with Staphylococcus aureus and in the assay with Candida albicans were 24 µM (≈ 6.01 µg/mL) and more than 100 µM, respectively. Also, the IC50 in the assay with DLD-1 was more than 10000 nM; with A549, 10500 nM; in assay [1], 7500 nM.
`COc1ccc2oc(/C=C/[S+](C)[O-])cc(=O)c2c1` (racemic): the MIC90 in the assay with Staphylococcus aureus was 6.1 µM (≈ 1.61 µg/mL); in the assay with Candida albicans, more than 100 µM. Besides, the concentration for half-maximal inhibition (IC50) in the assay with DLD-1 came to 5700 nM; in the assay with A549 it was 1600 nM; in assay [1] it was 1300 nM.
On to `COc1ccc2c(=O)cc(/C=C/[S+](C)[O-])oc2c1` (racemic), for which the MIC90 with Staphylococcus aureus was 20 µM (≈ 5.29 µg/mL); with Candida albicans it was more than 100 µM. Besides, the IC50 with DLD-1 was determined as 7800 nM; with A549, 2200 nM; in assay [1] it was 1800 nM.
Consider `C[S+]([O-])/C=C/c1cc(=O)c2ccccc2o1` (racemic), for which the MIC90 with Staphylococcus aureus was 9 µM (≈ 2.11 µg/mL); in the assay on Candida albicans, more than 100 µM. Further, the values for the half-maximal inhibitory concentration (IC50) (in the assay with DLD-1; with A549; in assay [1]) were 8000 nM, 1900 nM and 2000 nM, respectively.
Turning to `CCCCC(=O)Oc1ccc2oc(/C=C/[S+](C)[O-])cc(=O)c2c1` (racemic), the MIC90 with Staphylococcus aureus was 5.1 µM (≈ 1.71 µg/mL); with Candida albicans it was 47 µM (≈ 15.7 µg/mL). The IC50 with DLD-1 was 6700 nM; in the assay on A549, 2400 nM; in assay [1] it was 1800 nM.
In the same order, the values of `C[S+]([O-])/C=C/c1cc(=O)c2ccc3ccccc3c2o1` (racemic) are 4.8 µM (≈ 1.36 µg/mL), more than 100 µM, 7000 nM, 1400 nM and 1900 nM.
As to `Cc1ccc2c(=O)cc(/C=C/[S+](C)[O-])oc2c1` (racemic), the MIC90 with Staphylococcus aureus was 10 µM (≈ 2.48 µg/mL); in the assay on Candida albicans, more than 100 µM. In addition, the IC50 in the assay on DLD-1 came to 7000 nM; in the assay with A549, 2000 nM; in assay [1] it was 1900 nM.
Turning to `C[S+]([O-])/C=C/c1cc(=O)c2cc(Cl)ccc2o1` (racemic), the MIC90 in the assay on Staphylococcus aureus was 2.7 µM (≈ 0.726 µg/mL); in the assay with Candida albicans it was more than 100 µM. Besides, the values for the IC50 (with DLD-1; in the assay on A549; in assay [1]) were 6500 nM, 1700 nM and 1600 nM, respectively.
For the compound `CC(C)C(=O)Oc1ccc2oc(/C=C/[S+](C)[O-])cc(=O)c2c1` (racemic), the MIC90 was 9 µM (≈ 2.88 µg/mL) with Staphylococcus aureus and more than 100 µM in the assay on Candida albicans. The figures for the IC50 (with DLD-1; with A549; in assay [1]) were 9100 nM, 2400 nM and 1900 nM, respectively.
In the case of `C[S+]([O-])/C=C/c1cc(=O)c2cc(Br)ccc2o1` (racemic), the MIC90 amounted to 2.5 µM (≈ 0.783 µg/mL) with Staphylococcus aureus and 47 µM (≈ 14.7 µg/mL) in the assay with Candida albicans. Besides, the figures for the IC50 (in the assay on DLD-1; with A549; in assay [1]) were 4500 nM, 1100 nM and 1000 nM, respectively.
For `COc1cccc2oc(/C=C/[S+](C)[O-])cc(=O)c12` (racemic), the MIC90 was 43 µM (≈ 11.4 µg/mL) in the assay on Staphylococcus aureus and more than 100 µM in the assay on Candida albicans. For the same compound, the IC50 in the assay on DLD-1 was more than 10000 nM; in the assay on A549, 3800 nM; in assay [1], 3800 nM.
Regarding `CC(=O)Oc1ccc2oc(/C=C/[S+](C)[O-])cc(=O)c2c1` (racemic), the MIC90 in the assay on Staphylococcus aureus was 11 µM (≈ 3.22 µg/mL); in the assay on Candida albicans it was more than 100 µM. Besides, the IC50 was more than 10000 nM with DLD-1, 4100 nM with A549 and 2500 nM in assay [1].
Taken in the same sequence, the figures for `CC(C)Oc1ccc2oc(/C=C/[S+](C)[O-])cc(=O)c2c1` (racemic) were 11.1 µM (≈ 3.25 µg/mL), 84 µM (≈ 24.6 µg/mL), 8000 nM, 1500 nM and 1400 nM.
As to `C[S+]([O-])/C=C/c1cc(=O)c2cc(C#N)ccc2o1` (racemic), the MIC90 in the assay with Staphylococcus aureus was 5.6 µM (≈ 1.45 µg/mL); in the assay on Candida albicans it was more than 100 µM. The IC50 (in the assay with DLD-1; with A549; in assay [1]) was more than 10000 nM each time.
Take `C[S+]([O-])/C=C/c1oc2ccccc2c(=O)c1Cc1ccccc1` (racemic): the MIC90 in the assay on Staphylococcus aureus is 2.9 µM (≈ 0.941 µg/mL); with Candida albicans it was more than 100 µM. Also, the IC50 in the assay on DLD-1 came out at 5100 nM; with A549, 1300 nM; in assay [1] it was 1200 nM.
`C[S+]([O-])/C=C/c1cc(=O)c2cc(F)ccc2o1` (racemic): the MIC90 with Staphylococcus aureus was 5.3 µM (≈ 1.34 µg/mL); with Candida albicans, more than 100 µM. Besides, the IC50 with DLD-1 was 7000 nM; in the assay on A549 it was 2100 nM; in assay [1] it was 1700 nM.
As for `CCCCCOc1ccc2oc(/C=C/[S+](C)[O-])cc(=O)c2c1` (racemic), the MIC90 came to 4.3 µM (≈ 1.38 µg/mL) in the assay with Staphylococcus aureus and 7 µM (≈ 2.24 µg/mL) with Candida albicans. Further, the IC50 was determined as 6600 nM with DLD-1, 1600 nM in the assay on A549 and 1700 nM in assay [1].
On to `CC(C)COc1ccc2oc(/C=C/[S+](C)[O-])cc(=O)c2c1` (racemic), for which the MIC90 in the assay with Staphylococcus aureus was determined as 5.7 µM (≈ 1.75 µg/mL); with Candida albicans, 13.4 µM (≈ 4.11 µg/mL). Further, the IC50 with DLD-1 came out at 5000 nM; in the assay with A549, 1100 nM; in assay [1], 1200 nM.
`Cc1c(/C=C/[S+](C)[O-])oc2ccccc2c1=O` (racemic): the MIC90 in the assay on Staphylococcus aureus is 20 µM (≈ 4.97 µg/mL); in the assay on Candida albicans, more than 100 µM. Further, the 50% inhibitory concentration (IC50) was determined as 7200 nM with DLD-1, 1500 nM in the assay with A549 and 2100 nM in assay [1].
As to `COc1cccc2c(=O)cc(/C=C/[S+](C)[O-])oc12` (racemic), the results for the MIC90 with Staphylococcus aureus and with Candida albicans were 11 µM (≈ 2.91 µg/mL) and more than 100 µM, respectively. Moreover, the IC50 with DLD-1 stood at 9000 nM; in the assay with A549 it was 2200 nM; in assay [1] it was 1900 nM.
On to `CCOc1ccc2oc(/C=C/[S+](C)[O-])cc(=O)c2c1` (racemic), for which the MIC90 was determined as 11.4 µM (≈ 3.17 µg/mL) with Staphylococcus aureus and 67 µM (≈ 18.6 µg/mL) with Candida albicans. Moreover, the IC50 is 4900 nM in the assay with DLD-1, 1500 nM with A549 and 2000 nM in assay [1].
Taken in the same sequence, the figures for `CCCOc1ccc2oc(/C=C/[S+](C)[O-])cc(=O)c2c1` (racemic) were 11 µM (≈ 3.22 µg/mL), 39 µM (≈ 11.4 µg/mL), 6200 nM, 1100 nM and 1900 nM.
Taken in the same sequence, the figures for `CCCC(=O)Oc1ccc2oc(/C=C/[S+](C)[O-])cc(=O)c2c1` (racemic) were 7.2 µM (≈ 2.31 µg/mL), more than 100 µM, 8700 nM, 2200 nM and 1500 nM.
In the same order, the values of `Cc1ccc2oc(/C=C/[S+](C)[O-])cc(=O)c2c1` (racemic) are 10 µM (≈ 2.48 µg/mL), more than 100 µM, 7000 nM, 1700 nM and 1800 nM.
For the compound `CCCCOc1ccc2oc(/C=C/[S+](C)[O-])cc(=O)c2c1` (racemic), the MIC90 with Staphylococcus aureus was determined as 5.4 µM (≈ 1.65 µg/mL); in the assay with Candida albicans, 14.1 µM (≈ 4.32 µg/mL). Besides, the figures for the IC50 (in the assay on DLD-1; in the assay with A549; in assay [1]) were 4800 nM, 1400 nM and 1100 nM, respectively.
Taken in the same sequence, the figures for `C[S+]([O-])/C=C/c1cc(=O)c2cc(OC(=O)C(C)(C)C)ccc2o1` (racemic) were 10 µM (≈ 3.34 µg/mL), 71 µM (≈ 23.7 µg/mL), 8000 nM, 1600 nM and 1000 nM.
For the compound `CCC(=O)Oc1ccc2oc(/C=C/[S+](C)[O-])cc(=O)c2c1` (racemic), the figures for the MIC90 in the assay with Staphylococcus aureus and in the assay on Candida albicans were 10 µM (≈ 3.06 µg/mL) and more than 100 µM, respectively. For the same compound, the IC50 in the assay with DLD-1 came to 9000 nM; with A549, 2400 nM; in assay [1], 2100 nM.
In the same order, the values of `CC(C)CCOc1ccc2oc(/C=C/[S+](C)[O-])cc(=O)c2c1` (racemic) are 2.8 µM (≈ 0.897 µg/mL), 8.4 µM (≈ 2.69 µg/mL), 4100 nM, 1000 nM and 850 nM.
`C[S+]([O-])/C=C/c1cc(=O)c2cc3c(cc2o1)OCO3` (racemic): the MIC90 with Staphylococcus aureus was 39 µM (≈ 10.9 µg/mL); in the assay with Candida albicans, more than 100 µM. Further, the IC50 in the assay with DLD-1 amounted to 6000 nM; in the assay on A549, 2100 nM; in assay [1], 2000 nM.
For `CC(C)CC(=O)Oc1ccc2oc(/C=C/[S+](C)[O-])cc(=O)c2c1` (racemic), the MIC90 in the assay with Staphylococcus aureus came to 5.1 µM (≈ 1.71 µg/mL); in the assay with Candida albicans, 72 µM (≈ 24.1 µg/mL). Further, the IC50 amounted to 6100 nM with DLD-1, 2300 nM in the assay on A549 and 1700 nM in assay [1].
On to `C[S+]([O-])/C=C/c1cc(=O)c2c(ccc3ccccc32)o1` (racemic), for which the MIC90 with Staphylococcus aureus was 18 µM (≈ 5.12 µg/mL); with Candida albicans, more than 100 µM. Besides, the IC50 with DLD-1 is 4300 nM; with A549, 940 nM; in assay [1], 880 nM.
Regarding `Cc1cccc2oc(/C=C/[S+](C)[O-])cc(=O)c12` (racemic), the MIC90 in the assay with Staphylococcus aureus is 23 µM (≈ 5.71 µg/mL); in the assay with Candida albicans, more than 100 µM. Besides, the IC50 in the assay with DLD-1 worked out at 5500 nM; in the assay on A549 it was 1300 nM; in assay [1] it was 1900 nM.
For the compound `Cc1cccc2c(=O)cc(/C=C/[S+](C)[O-])oc12` (racemic), the MIC90 with Staphylococcus aureus is 10 µM (≈ 2.48 µg/mL); in the assay on Candida albicans, more than 100 µM. Besides, the IC50 in the assay with DLD-1 came to 6800 nM; with A549 it was 1700 nM; in assay [1], 2200 nM.
Consider `C[C@@H]1[C@H](O)[C@@H](C)/C=C/C=C/C=C/C=C/C=C/C=C/C=C/[C@H](O[C@@H]2O[C@H](C)[C@@H](O)[C@H](N)[C@@H]2O)C[C@@H]2O[C@](O)(C[C@@H](O)C[C@@H](O)[C@H](O)CC[C@@H](O)C[C@@H](O)CC(=O)O[C@H]1C)C[C@H](O)[C@H]2C(=O)O` [AMPHOTERICIN B], for which the MIC90 with Candida albicans amounted to 1.4 µM (≈ 1.29 µg/mL).
In the case of `COc1cc([C@@H]2c3cc4c(cc3[C@@H](O[C@@H]3O[C@@H]5CO[C@@H](C)O[C@H]5[C@H](O)[C@H]3O)[C@H]3COC(=O)[C@H]23)OCO4)cc(OC)c1O` [ETOPOSIDE], the IC50 with DLD-1 amounted to 570 nM; in the assay on A549, 4800 nM; in assay [1] it was 47000 nM.
GENTAMICIN: the MIC90 with Staphylococcus aureus is 0.09 µM.
